Data reported in patent US20090304692A1, “TRIAZINE COMPOUNDS AS PI3 KINASE AND MTOR INHIBITORS” (Wyeth, priority 2008, published 2009).
“And” between values parts separate entries of the source, which are not always exact repeats. Equal entries are not always repeated. Where two headings read alike, the source gives them in different places.

Experiments:
Human mTOR (FLAG-TOR) = Human mTOR (FLAG-TOR) (Homo sapiens, UniProt P42345); test: mTOR kinase assay (DELFIA format, purified enzyme); format: biochemical
Human mTOR (FLAG-TOR), sequence (P42345 1360-2549 limits assumed): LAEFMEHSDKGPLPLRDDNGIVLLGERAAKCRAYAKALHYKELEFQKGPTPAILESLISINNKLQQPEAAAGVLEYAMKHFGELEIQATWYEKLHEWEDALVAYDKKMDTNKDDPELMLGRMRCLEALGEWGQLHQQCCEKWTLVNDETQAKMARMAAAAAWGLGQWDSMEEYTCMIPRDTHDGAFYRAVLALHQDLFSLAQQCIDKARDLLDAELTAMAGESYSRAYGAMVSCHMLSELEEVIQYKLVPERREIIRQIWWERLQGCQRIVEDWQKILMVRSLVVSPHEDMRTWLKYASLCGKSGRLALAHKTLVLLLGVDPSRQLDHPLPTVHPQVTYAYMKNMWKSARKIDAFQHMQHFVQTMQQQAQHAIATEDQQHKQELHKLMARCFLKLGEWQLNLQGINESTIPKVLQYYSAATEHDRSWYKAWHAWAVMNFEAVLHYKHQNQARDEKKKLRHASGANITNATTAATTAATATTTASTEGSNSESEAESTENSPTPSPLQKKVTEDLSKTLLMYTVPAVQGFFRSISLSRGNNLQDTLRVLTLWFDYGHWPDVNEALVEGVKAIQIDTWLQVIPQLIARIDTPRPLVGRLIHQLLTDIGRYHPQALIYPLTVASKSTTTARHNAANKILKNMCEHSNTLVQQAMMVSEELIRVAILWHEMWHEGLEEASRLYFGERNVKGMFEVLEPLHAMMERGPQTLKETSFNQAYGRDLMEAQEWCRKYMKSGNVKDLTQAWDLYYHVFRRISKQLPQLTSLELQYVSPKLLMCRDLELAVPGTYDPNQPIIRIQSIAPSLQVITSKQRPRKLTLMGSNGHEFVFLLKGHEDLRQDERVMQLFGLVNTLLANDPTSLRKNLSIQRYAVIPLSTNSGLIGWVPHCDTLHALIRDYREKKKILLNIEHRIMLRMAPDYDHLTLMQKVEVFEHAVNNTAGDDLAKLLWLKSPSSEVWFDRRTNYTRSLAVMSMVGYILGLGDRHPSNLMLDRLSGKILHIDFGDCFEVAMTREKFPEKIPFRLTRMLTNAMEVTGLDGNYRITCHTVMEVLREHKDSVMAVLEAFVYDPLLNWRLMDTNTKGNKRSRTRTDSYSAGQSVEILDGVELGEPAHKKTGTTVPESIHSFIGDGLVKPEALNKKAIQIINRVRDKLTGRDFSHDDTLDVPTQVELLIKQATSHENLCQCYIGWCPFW

[1] = tested on: human breast MDA-MB-361 tumor cell line; test: In vitro cell culture growth assay (MTS), MDA-MB-361; format: cell-based
[2] = tested on: human prostate PC3-mm2 tumor cell line; test: In vitro cell culture growth assay (MTS), PC3-mm2; format: cell-based
PI3K-α = PI3K-α (Homo sapiens, UniProt P42336); test: PI3K-alpha fluorescence polarization assay; settings: read-out: IC50 PI3Kα
PI3K-α, sequence (P42336 whole entry, species assumed): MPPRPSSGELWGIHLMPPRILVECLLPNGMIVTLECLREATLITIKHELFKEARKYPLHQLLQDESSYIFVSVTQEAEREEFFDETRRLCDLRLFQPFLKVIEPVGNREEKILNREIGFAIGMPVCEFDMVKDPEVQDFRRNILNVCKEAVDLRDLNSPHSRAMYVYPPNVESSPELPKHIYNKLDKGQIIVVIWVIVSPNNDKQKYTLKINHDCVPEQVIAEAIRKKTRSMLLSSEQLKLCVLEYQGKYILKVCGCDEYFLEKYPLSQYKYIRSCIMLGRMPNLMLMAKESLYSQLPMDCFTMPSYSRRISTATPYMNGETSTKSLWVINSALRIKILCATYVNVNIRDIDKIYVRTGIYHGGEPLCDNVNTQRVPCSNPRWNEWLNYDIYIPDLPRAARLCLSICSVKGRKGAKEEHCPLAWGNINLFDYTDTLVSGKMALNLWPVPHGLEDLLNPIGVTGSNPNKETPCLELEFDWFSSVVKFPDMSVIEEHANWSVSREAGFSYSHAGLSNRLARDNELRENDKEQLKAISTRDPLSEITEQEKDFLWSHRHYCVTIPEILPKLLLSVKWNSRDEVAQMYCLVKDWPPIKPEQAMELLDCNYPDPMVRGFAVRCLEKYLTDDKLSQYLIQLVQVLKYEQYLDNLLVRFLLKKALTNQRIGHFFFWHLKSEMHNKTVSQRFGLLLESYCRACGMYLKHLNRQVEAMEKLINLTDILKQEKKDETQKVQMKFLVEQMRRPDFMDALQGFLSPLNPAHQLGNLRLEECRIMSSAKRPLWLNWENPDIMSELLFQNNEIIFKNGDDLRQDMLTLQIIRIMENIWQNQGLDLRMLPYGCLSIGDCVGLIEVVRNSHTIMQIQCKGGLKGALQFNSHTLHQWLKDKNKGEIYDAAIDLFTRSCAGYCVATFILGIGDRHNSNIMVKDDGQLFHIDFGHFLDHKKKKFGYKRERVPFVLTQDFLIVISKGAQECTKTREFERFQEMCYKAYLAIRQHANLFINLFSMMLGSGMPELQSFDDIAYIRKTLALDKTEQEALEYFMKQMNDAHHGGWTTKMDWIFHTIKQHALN
PI3K-α, sequence (P27986 whole entry partner, species assumed): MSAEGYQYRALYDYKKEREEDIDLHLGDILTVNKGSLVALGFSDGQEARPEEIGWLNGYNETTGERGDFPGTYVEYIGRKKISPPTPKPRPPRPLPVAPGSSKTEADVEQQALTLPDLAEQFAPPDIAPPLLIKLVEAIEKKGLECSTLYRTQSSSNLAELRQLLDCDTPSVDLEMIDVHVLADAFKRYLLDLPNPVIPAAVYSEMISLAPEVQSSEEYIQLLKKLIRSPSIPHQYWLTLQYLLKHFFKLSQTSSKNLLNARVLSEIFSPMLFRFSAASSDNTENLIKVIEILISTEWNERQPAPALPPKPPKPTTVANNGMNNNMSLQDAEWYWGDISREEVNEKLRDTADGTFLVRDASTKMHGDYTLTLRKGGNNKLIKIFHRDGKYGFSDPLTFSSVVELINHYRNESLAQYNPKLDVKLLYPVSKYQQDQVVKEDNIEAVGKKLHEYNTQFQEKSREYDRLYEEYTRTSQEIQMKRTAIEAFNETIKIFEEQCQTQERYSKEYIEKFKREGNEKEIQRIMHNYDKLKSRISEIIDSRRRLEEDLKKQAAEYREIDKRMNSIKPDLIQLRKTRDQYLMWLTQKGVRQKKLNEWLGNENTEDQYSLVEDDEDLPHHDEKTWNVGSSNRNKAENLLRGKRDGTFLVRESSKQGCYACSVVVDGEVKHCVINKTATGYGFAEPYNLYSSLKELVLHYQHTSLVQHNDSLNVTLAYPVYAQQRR

PI3K-γ = PI3K-γ (Homo sapiens, UniProt P48736); test: PI3K-gamma fluorescence polarization assay; settings: read-out: IC50 PI3Kγ
PI3K-γ, sequence (P48736 whole entry, species assumed): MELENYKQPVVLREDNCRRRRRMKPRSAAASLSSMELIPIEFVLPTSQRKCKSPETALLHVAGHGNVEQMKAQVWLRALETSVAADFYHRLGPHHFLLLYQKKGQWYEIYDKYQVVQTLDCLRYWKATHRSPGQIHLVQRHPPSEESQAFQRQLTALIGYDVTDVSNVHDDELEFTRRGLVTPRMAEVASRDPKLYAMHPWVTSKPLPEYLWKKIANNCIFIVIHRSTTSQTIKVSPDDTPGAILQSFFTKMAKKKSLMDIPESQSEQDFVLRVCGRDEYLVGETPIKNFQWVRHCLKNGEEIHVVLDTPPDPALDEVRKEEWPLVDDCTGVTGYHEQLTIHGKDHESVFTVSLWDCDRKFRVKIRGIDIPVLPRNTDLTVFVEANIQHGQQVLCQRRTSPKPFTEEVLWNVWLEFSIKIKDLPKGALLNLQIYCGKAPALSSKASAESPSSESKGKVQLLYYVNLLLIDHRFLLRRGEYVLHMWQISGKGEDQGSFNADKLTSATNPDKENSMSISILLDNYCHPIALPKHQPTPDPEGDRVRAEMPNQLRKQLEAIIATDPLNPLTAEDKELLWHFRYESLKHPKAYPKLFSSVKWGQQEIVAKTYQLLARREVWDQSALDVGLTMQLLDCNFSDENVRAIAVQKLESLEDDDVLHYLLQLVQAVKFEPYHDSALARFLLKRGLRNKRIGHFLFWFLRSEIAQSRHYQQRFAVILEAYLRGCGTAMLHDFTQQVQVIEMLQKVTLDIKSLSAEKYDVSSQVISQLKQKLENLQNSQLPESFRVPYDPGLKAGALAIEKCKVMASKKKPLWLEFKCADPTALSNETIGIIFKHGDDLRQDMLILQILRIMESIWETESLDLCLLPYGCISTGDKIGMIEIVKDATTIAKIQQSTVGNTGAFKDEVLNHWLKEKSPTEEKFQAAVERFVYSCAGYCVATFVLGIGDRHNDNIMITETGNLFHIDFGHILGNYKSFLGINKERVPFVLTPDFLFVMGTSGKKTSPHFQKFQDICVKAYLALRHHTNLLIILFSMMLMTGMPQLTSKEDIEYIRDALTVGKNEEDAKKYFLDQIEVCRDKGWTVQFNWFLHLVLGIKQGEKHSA

[3] = Homo sapiens, MDA-MB-361, 72 h, MTS cell growth assay, three days after drug treatment, read-out: IC50 MDA-MB-361
[4] = Homo sapiens, PC3MM2, 72 h, MTS cell growth assay, three days after drug treatment, PC3-mm2 cells, read-out: IC50 PC3-mm2
[5] = Homo sapiens, PC3MM2, 72 h, MTS cell growth assay, three days after drug treatment, read-out: IC50 PC3-mm2
[6] = Homo sapiens, MDA-MB-361, 72 h, read-out: IC50 MDA-MB-361
[7] = Homo sapiens, PC3MM2, 72 h, read-out: IC50 PC3-mm2
[8] = Homo sapiens, MDA-MB-361, 72 h, MTS cell growth assay, three days after drug treatment, MDA-MB-361 cells, read-out: IC50 MDA-MB-361
[9] = Homo sapiens, 72 h, MTS cell growth assay, three days after drug treatment, MDA-MB-361 cells, read-out: IC50 MDA-MB-361

Compound | IC50 (Human mTOR (FLAG-TOR); read-out: IC50 mTOR) | IC50 [1, 3] [nM] | IC50 [2, 4] [nM] | IC50 [2, 5] [nM] | IC50 (PI3K-α) [nM] | IC50 (PI3K-γ) [nM] | further results
O=C(Nc1ccncc1)Nc1ccc(-c2nc(CCC3OCCCO3)nc(N3CCOCC3)n2)cc1 [Example 267, 1-(4-{4-[2-(1,3-dioxan-2-yl)ethyl]-6-morpholin-4-yl-1,3,5-triazin-2-yl}phenyl)-3-pyridin-4-ylurea] | 3.5 nM and 4.3 nM | 94 | 200 | 200 | 17 | 58 | IC50 (PI3K-α; listed as 730): 15.5 nM; IC50 (PI3K-γ; listed as 730): 64.5 nM
COc1nc(-c2ccc(NC(=O)Nc3ccc(C(=O)NCCN(C)C)cc3)cc2)nc(N2CCOCC2)n1 [Example 244, N-[2-(dimethylamino)ethyl]-4-({[4-(4-methoxy-6-morpholin-4-yl-1,3,5-triazin-2-yl)phenyl]carbamoyl}amino)benzamide] |  |  |  |  | 1 |  | IC50 (Human mTOR (FLAG-TOR); IC50 mTOR): 5.1 nM and 5.65 nM; IC50 [1, 6]: < 31 nM; IC50 [2, 7]: 71 nM; IC50 (PI3K-α; listed as 721): 0.6 nM
CCN(CC)C(=O)[n+]1ccc(NC(=O)Nc2ccc(-c3nc(N4CCOCC4)nc(N4C5CCC4COC5)n3)cc2)cc1 [Example 201, 1-(diethylcarbamoyl)-4-[({4-[4-morpholin-4-yl-6-(3-oxa-8-azabicyclo[3.2.1]oct-8-yl)-1,3,5-triazin-2-yl]phenyl}carbamoyl)amino]pyridinium] | 0.9 nM | 29 | 44 | 44 |  |  | 
O=C(Nc1ccc(Cl)cc1)Nc1ccc(-c2nc(N3CCOCC3)nc(N3CCOCC3)n2)cc1 [Example 8, 1-(4-chlorophenyl)-3-[4-(4,6-dimorpholin-4-yl-1,3,5-triazin-2-yl)phenyl]-urea] | 8 nM and 68 nM |  |  |  | 20 |  | IC50 ([1]; MTS cell growth assay, three days after drug treatment, listed as 10, read-out: IC50 MDA-MB-361): 2710 nM; IC50 ([2]; MTS cell growth assay, three days after drug treatment, listed as 10, read-out: IC50 PC3-mm2): 1780 nM; IC50 (PI3K-α; listed as 10): 75 nM
CC(O)c1ccc(NC(=O)Nc2ccc(-c3nc(N4CCOCC4)nc(N4CCOCC4)n3)cc2)cc1 (centres unmarked) [Example 52, 1-[4-(4,6-dimorpholin-4-yl-1,3,5-triazin-2-yl)phenyl]-3-[4-(1-hydroxyethyl)phenyl]urea] | 1 nM | < 30 |  | 49 |  |  | 
O=C(Nc1ccc(-c2nc(N3CCOCC3)nc(N3CCOCC3)n2)cc1)Nc1cccs1 [Example 4, 1-[4-(4,6-dimorpholin-4-yl-1,3,5-triazin-2-yl)phenyl]-3-thiophen-2-ylurea] | 1.7 nM | 45 |  | 43 |  |  | 
CN1CCN(C(=O)c2ccc(NC(=O)Nc3ccc(-c4nc(N5CCCOCC5)nc(N5CCOCC5)n4)cc3)cc2)CC1 [Example 573, 1-{4-[(4-methylpiperazin-1-yl)carbonyl]phenyl}-3-{4-[4-morpholin-4-yl-6-(1,4-oxazepan-4-yl)-1,3,5-triazin-2-yl]phenyl}urea] | 4 nM |  | 206 |  |  | 64 | IC50 [1, 8]: 99 nM
COc1nc(-c2ccc(NC(=O)Nc3ccc(C(=O)N(C)CCN(C)C)cc3)cc2)nc(N2CCOCC2)n1 [Example 243, N-[2-(dimethylamino)ethyl]-4-({[4-(4-methoxy-6-morpholin-4-yl-1,3,5-triazin-2-yl)phenyl]carbamoyl}amino)-N-methylbenzamide] |  |  |  |  | 1 |  | IC50 (Human mTOR (FLAG-TOR); IC50 mTOR): 7.7 nM; IC50 [1, 6]: 15 nM; IC50 [2, 7]: 34 nM; IC50 (PI3K-α; listed as 720): 0.4 nM
CC(C)Oc1nc(-c2ccc(NC(=O)Nc3ccc(C(=O)NCCN(C)C)cc3)cc2)nc(N2CCOCC2)n1 [Example 187, N-[2-(dimethylamino)ethyl]-4-({[4-(4-isopropoxy-6-morpholin-4-yl-1,3,5-triazin-2-yl)phenyl]carbamoyl}amino)benzamide] |  |  |  |  | 3 |  | IC50 (Human mTOR (FLAG-TOR); IC50 mTOR): 3.5 nM; IC50 [1, 6]: 11 nM; IC50 [2, 7]: 41 nM
O=C(Nc1ccc(C(=O)NCCN2CCOCC2)cc1)Nc1ccc(-c2nc(N3CCOCC3)nc(N3C4CCC3COC4)n2)cc1 [Example 702, N-(2-morpholin-4-ylethyl)-4-[({4-[4-morpholin-4-yl-6-(3-oxa-8-azabicyclo[3.2.1]oct-8-yl)-1,3,5-triazin-2-yl]phenyl}carbamoyl)amino]benzamide] | 0.555 nM |  | 14 |  |  | 126 | IC50 [1, 9]: 4 nM
O=C(Nc1ccc(-c2nc(N3CCOCC3)nc(N3CCOCC3)n2)cc1)Nc1ccc(F)cc1F [Example 11, (2,4-difluorophenyl)-3-[4-(4,6-dimorpholin-4-yl-1,3,5-triazin-2-yl)phenyl]urea] | 9.25 nM |  |  |  |  |  | IC50 ([1]; Homo sapiens, MDA-MB-361, 72 h, read-out: IC50 MDA-MB-361, MTS cell growth assay, three days after drug treatment): 794 nM; IC50 ([2]; Homo sapiens, PC3MM2, 72 h, read-out: IC50 PC3-mm2, MTS cell growth assay, three days after drug treatment): 5630 nM
CC(C)N1CCN(C(=O)c2ccc(NC(=O)Nc3ccc(-c4nc(N5CCC5)nc(N5CCOCC5)n4)cc3)cc2)CC1 [Example 492, 1-[4-(4-azetidin-1-yl-6-morpholin-4-yl-1,3,5-triazin-2-yl)phenyl]-3-(4-{[4-(1-methylethyl)piperazin-1-yl]carbonyl}phenyl)urea] | 18 nM |  | 57 |  |  | 35 | IC50 [1, 8]: 26 nM
C[C@H]1COCCN1c1nc(-c2ccc(NC(=O)Nc3ccc(CO)cc3)cc2)nc(N2CCOCC2)n1 [Example 91, 1-[4-(2-hydroxymethyl)phenyl]-3-(4-{4-[(3S)-3-methylmorpholin-4-yl]-6-morpholin-4-yl-1,3,5-triazin-2-yl}phenyl)urea] |  | 25 |  | 1570 | 6 | 73 | 
CCN(CC)CCOC(=O)c1ccc(NC(=O)Nc2ccc(-c3nc(N4CCOCC4)nc(N4C5CCC4COC5)n3)cc2)cc1 [Example 40, 2-(diethylamino)ethyl 4-[({4-[4-morpholin-4-yl-6-(3-oxa-8-azabicyclo[3.2.1]oct-8-yl)-1,3,5-triazin-2-yl]phenyl}carbamoyl)amino]benzoate] | 0.66 nM | < 30 | 62 | 62 |  |  | IC50 [1, 8]: < 30 nM
CCN1CCN(C(=O)Nc2ccc(NC(=O)Nc3ccc(-c4nc(N5CCOCC5)nc(N5CCOCC5)n4)cc3)cc2)CC1 [Example 503, N-[4-({[4-(4,6-dimorpholin-4-yl-1,3,5-triazin-2-yl)phenyl]carbamoyl}amino)phenyl]-4-ethylpiperazine-1-carboxamide] |  |  | 12.5 |  | 0.5 | 1.8 | IC50 [1, 9]: 7.5 nM
O=C(Nc1ccc(-c2nc(N3CCOCC3)nc(N3CCOCC3)n2)cc1)Nc1cccnc1 [Example 2, 1-[4-(4,6-dimorpholin-4-yl-1,3,5-triazin-2-yl)phenyl]-3-pyridin-3-ylurea] | 1 nM | 45 |  | 43 |  |  | 
O=C(Nc1ccc(C(=O)NCCN2CCCCC2)cc1)Nc1ccc(-c2nc(O[C@H]3CCOC3)nc(N3CCOCC3)n2)cc1 [Example 520, 4-{[(4-{4-morpholin-4-yl-6-[(3S)-tetrahydrofuran-3-yloxy]-1,3,5-triazin-2-yl}phenyl)carbamoyl]amino}-N-(2-piperidin-1-ylethyl)benzamide] |  |  | 18 |  | 1.4 |  | IC50 (Human mTOR (FLAG-TOR); IC50 mTOR): 0.38 nM; IC50 [1, 6]: 5 nM
CC(C)Oc1nc(-c2ccc(NC(=O)Nc3ccc(C(=O)NC4CCN(C)CC4)cc3)cc2)nc(N2CCOCC2)n1 [Example 97, 4-({[4-(4-isopropoxy-6-morpholin-4-yl-1,3,5-triazin-2-yl)phenyl]carbamoyl}amino)-N-(1-methylpiperidin-4-yl)benzamide] | 1.1 nM and 1.2 nM |  |  |  |  |  | IC50 [1, 6]: < 30 nM; IC50 [2, 7]: 52 nM
4-yl-6-(3-oxa-8-azabicyclo[3.2.1]oct-8-yl)-1,3,5-triazin-2-yl]phenyl}urea [Example 518] |  |  |  |  | 0.9 | 6.5 | IC50 ([1]; MTS cell growth assay, three days after drug treatment, MDA-MB-361 cells, read-out: IC50 MDA-MB-361): 4 nM; IC50 ([2]; MTS cell growth assay, three days after drug treatment, PC3-mm2 cells, read-out: IC50 PC3-mm2): 24 nM
CN(C)CCN(C)C(=O)c1ccc(NC(=O)Nc2ccc(-c3nc(N4CCC4)nc(N4CCOCC4)n3)cc2)cc1 [Example 197, 4-({[4-(4-azetidin-1-yl-6-morpholin-4-yl-1,3,5-triazin-2-yl)phenyl]carbamoyl}amino)-N-[2-(dimethylamino)ethyl]-N-methylbenzamide] | 24 nM | 17 |  | 49 |  |  | 
CC(C)N1CCN(C(=O)c2ccc(NC(=O)Nc3ccc(-c4nc(N5CCOCC5)nc(N5C6CCCC5COC6)n4)cc3)cc2)CC1 [Example 805, 1-(4-{[4-(1-methylethyl)piperazin-1-yl]carbonyl}phenyl)-3-{4-[4-morpholin-4-yl-6-(3-oxa-9-azabicyclo[3.3.1]non-9-yl)-1,3,5-triazin-2-yl]phenyl}urea] | 0.415 nM |  |  |  |  | 64 | IC50 ([1]; Homo sapiens, MDA-MB-361, 72 h, MDA-MB-361 cells, MTS, three days after drug treatment, read-out: IC50 MDA-MB-361): 3 nM; IC50 ([2]; Homo sapiens, PC3MM2, 72 h, PC3-mm2 cells, MTS, three days after drug treatment, read-out: IC50 PC3-mm2): 13 nM
